Measurements from article PMC3413433, “A novel cytarabine crystalline lipid prodrug: Hexadecyloxypropyl cytarabine 3′,5′-cyclic monophosphate for proliferative vitreoretinopathy” (Molecular Vision, 2012).
Where “and” joins values, the source holds several entries; their conditions need not be identical. Equal entries are not always repeated. Entries after “also recorded” stand apart in the source; their conditions may differ. Marks after values point to notes of the source that are not given here.

Tests used:
rat eyes = experiment: Toxicity study of HDP-P-Ara-C in rat eyes (intravitreal injection); assay type: in vivo
Description: Twelve Brown Norway rats were used to evaluate the effect of intravitreal HDP-P-Ara-C versus control injection. […] Only one eye of each rat was injected with the drug, and the fellow eye was injected with saline as control. Electroretinograms (ERGs) were obtained before drug injection and 1 day before scheduled sacrifice. Following injection, toxicity and safety were evaluated with indirect ophthalmoscopy, biomicroscopy, and fundus photography. At week 2 following drug injections, all of the rats were euthanized with intraperitoneal injection of ketamine (100 mg/kg) and xylazine (10 mg/kg) followed by intraperitoneal injection of 120 mg/kg sodium pentobarbital. Six eyes were used for pathologic evaluation and six eyes used for evaluation of vitreous drug level. Vitreous drug levels were determined at the end of the experiment using high-performance liquid chromatography (HPLC).
(§1) Intraocular pressure (IOP) measurements and ERG recordings were repeated measurement data. Therefore, generalized estimating equations were used to compare the mean IOP and ERG amplitudes between each treatment group and the control group. All analyses were performed with SAS 9.2 software (SAS Institute Inc., Cary, NC), and the difference was considered to be significant when the p value was smaller than 0.05.

[1] = Simulated intravitreal clearance kinetics (dissolution chamber); assay type: in vitro ADME
Description: Dissolution starting from an intravitreal drug depot was simulated using a custom chamber and a syringe pump. The drug powder (600 µg) was weighed into the chamber, which had 1.5 ml of effective circulation volume to mimic the rabbit vitreous. The chamber was filled with 1.5 ml of Hank’s Balanced Salt Solution (HBSS). The chamber was then connected by tubing to a NE-1000 syringe pump (New Era Pump Systems, Farmingdale, NY) on one end and open tubing on the other end so that the solution could be collected into a vial (Figure 1). The syringe pump was set to a flow rate of 2 µl/min [12], and the syringe filled with HBSS. The entire setup was maintained at 37 °C and pumped continuously. This dissolution chamber mimics the rabbit vitreous fluid turnover only. […] At the same time every day, the vial was changed and the contents collected and stored at −80 °C until liquid chromatography/mass spectrometry (LC/MS) was performed.
Figure 1 The dissolution chamber is made of poly methyl methacrylate. Inlet tubing connects from a syringe pump to the upper part of the chamber, and the outlet tubing leaves from the lower part of the chamber to the sample collector. In the center of the dissolution chamber, a titanium mesh circle is installed to prevent the large drug particles reaching the lower chamber to possibly clog the outgoing tubing. The mesh contains […].

rMC-1 cells = experiment: Cell proliferation assay (rMC-1/XTT); assay type: cell-based; conditions: Rattus norvegicus, 120 h, 5 days, XTT, read-out: 50% cytotoxicity concentration (CC50)
Description: (§2) Human retinal pigment epithelium (ARPE-19) cells were obtained from the American Type Culture Collection (ATCC; Manassas, VA). A rat Müller cell line, rMC-1, was provided by Dr. Gabe Silva at UC San Diego (originally obtained from Dr. Vijay Sarthy, Northwestern University, Chicago, IL). ARPE-19 cells were cultured in Dulbecco’s modified Eagle medium (DMEM)/F12 and rMC-1 in DMEM. DMEM/F12 medium and DMEM were maintained at 37 °C in a humidified chamber of 5% CO2. All culture media were supplemented with 10% fetal bovine serum, 100 U/ml penicillin, and 100 µg/ml streptomycin. The cell lines were chosen due to their dominant presence in the pathology of proliferative vitreoretinopathy.
rMC-1 cells were plated in 96-well plates at […] per well. Serial dilutions of the compounds were added to the wells in a total volume of 100 µl. The plates were maintained in a 37 °C incubator. After 5 days, 50 µl of a solution of XTT (Roche Molecular Biochemicals, Indianapolis, IN) was added to each well, and the plates returned to the incubator for 30 min, after which the […] (OD) of each well was measured at a wavelength of 450 nanometers. Percent inhibition was determined by comparing the OD of wells containing compound to the OD of control wells.

ARPE-19 cells = experiment: Cell proliferation assay (ARPE-19/WST-1); assay type: cell-based; conditions: Homo sapiens, 120 h, 5 days, WST-1, read-out: 50% cytotoxicity concentration (CC50)
Description: as §2
ARPE-19 cells were plated in 96-well plates at […] per well. Serial dilutions of the compounds were added to the wells in a total volume of 100 µl. The plates were maintained in a 37 °C incubator. After 5 days, 10 µl of a solution of WST-1 (Roche Diagnostics, Indianapolis, IN) was added to each well, and the plates returned to the incubator for 0.5 h, after which the OD450 of each well was measured. Percent inhibition data were obtained from at least three experiments with at least six wells at each concentration in separate 96-well plates. […] The results were expressed as the percentage of the optical density of treated cells relative to that of untreated controls.

[2] = Water solubility (observation); assay type: physicochemical
rabbit eyes = experiment: Toxicity study of HDP-cP-Ara-C in rabbit eyes (intravitreal injection); assay type: in vivo; conditions: for Dark A amp (dark adapted ERG a-wave amplitude) / Dark B amp / Flicker amp / Light A amp / Light B amp: OD, n=4, in µV (unit assumed)
Text: Sixteen New Zealand Red rabbits were used for this study. Only one eye of each animal was used for the drug testing, and the fellow eye was used as a control by injection of the diluent. […] After the intravitreal injection, the rabbits were examined at week 1, 2, 4, 8, and 12 and then once a month for 7 months. The eyes were monitored with slit-lamp exam, tonometry, indirect ophthalmoscope, and fundus camera. The drug depot size was estimated and recorded using the optic disc area and the drug depot contour in the vitreous. The number of disc areas for estimating the two dimensions of the drug depot and the contour (ball=3, patch=2, filaments and dots=1) provides an estimate of the density of the drug depot. ERGs were recorded from all animals at week 2, week 8, and immediately before the animals were euthanized by deeply anesthetizing the animals with a combined ketamine (24 mg/kg) and xylazine (6 mg/kg) intramuscular injection followed by an intravenous injection of 0.3 ml/kg B-euthanasia (Schering-Plough Animal Health, Kenilworth, NJ).
as §1

[3] = design: method as in PMID 1917392; conditions: unmodified nucleoside; cited from earlier work
experimental PVR = system: experimental PVR; design: method as in PMID 10359331; conditions: intravitreal injection; cited from earlier work
herpes simplex virus = system: herpes simplex virus; design: method as in PMID 15505067; conditions: single intravitreal injection; cited from earlier work

In the case of CCCCCCCCCCCCCCCCOCCCOP(=O)(O)OC[C@H]1O[C@@H](n2ccc(N)nc2=O)[C@@H](O)[C@@H]1O [HDP-P-Ara-C, hexadecyloxypropyl cytarabine 5′-monophosphate], the “depot formation in the vitreous” value (rat eyes; after intravitreal injection) is reported as “did not form a depot”, the ocular toxicity (rat eyes; intravitreal 2-228 µg/eye, 2 weeks) is reported as “no ocular toxicity was found” and the ERG and pathology (rat eyes; intravitreal, 2 weeks) is reported as “normal retinal physiology and histology”. For the same compound, the “vitreous drug level (HPLC)” value (rat eyes; week 2 after intravitreal injection, including highest dose 228 µg/eye) was “not detectable; also recorded: no drug was detectable; also recorded: no HDP-P-Ara-C was detected”, the “drug in eluate samples” value ([1]; day 7 and after) was “no drug was detected” and the “drug cleared from the chamber” value ([1]; within 3 days, flow rate 2 µl/min) was 99%. For the same compound, the CC50 (rMC-1 cells) was 32 ± 2.2 µM and the CC50 (ARPE-19 cells) was 52 ± 2.6 µM.
For CCCCCCCCCCCCCCCCOCCCOP1(=O)OC[C@H]2O[C@@H](n3ccc(N)nc3=O)[C@@H](O)[C@@H]2O1 (stereo partly shown) [HDP-cP-Ara-C, hexadecyloxypropyl cytarabine 3′,5′-cyclic monophosphate], the water solubility [2] was “limited aqueous solubility; also recorded: minimally water soluble; also recorded: sparingly water soluble”, the “drug concentration in the eluate (low-level sustained release)” value ([1]; day 25 to day 36) was “about 16 ng/mL” and the “day of peak release” value ([1]; dissolution chamber eluate) was 9 days and ~10 days. The “hydrolysis to HDP-P-Ara-C during the dissolution experiment” value ([1]; eluate analysis, medium printed as PBS, HBSS) was “slow hydrolysis”, the “time still detectable in dissolution chamber eluate” value ([1]; end of experiment, flow rate 2 µL/min) was ≥ 36 days and the “TUNEL staining / retinal structure” value (rabbit eyes; 250 µg intravitreal, paraffin sections vs fellow eye) was “No structural abnormality or apoptosis; also recorded: normal structures and negative apoptosis staining”. For the same compound, the ERG examination (rabbit eyes; 250 µg or lower doses) was “did not reveal drug toxicity”, the “eyes with direct contact of drug depot with optic nerve or inferior retina (gliosis, discoloration)” value (rabbit eyes; 800 µg, 7-month study) was “two eyes out of the four eyes” and the “dark adapted a-wave and flicker ERG amplitude vs fellow control eyes” value (rabbit eyes; 800 µg/eye) was “significantly lower”. For the same compound, the “intraocular pressure, injected eyes vs fellow eyes” value (rabbit eyes; 25-800 µg/eye) was “no significant difference”, the “estimated time drug depot would be visible” value (rabbit eyes; 80 or 250 µg/eye, estimation of vitreal clearance) was 3 months and the “time drug depots visible” value (rabbit eyes; all doses (25-800 µg/eye)) was ≥ 2 months. The “Dark A amp (dark adapted ERG a-wave amplitude)” value (“Dark A amp” for short) (rabbit eyes; high dose 250 µg/eye) was −15.6, the “Dark B amp” value (rabbit eyes; high dose 250 µg/eye) was 83.19 and the Flicker amp (rabbit eyes; high dose 250 µg/eye) was 25.07. The “Light A amp” value (rabbit eyes; high dose 250 µg/eye) was −3.57, the “Light B amp” value (rabbit eyes; high dose 250 µg/eye) was 49.68 and the “Dark A amp” value (rabbit eyes; highest dose 800 µg/eye) was −11.69. For the same compound, the “Dark B amp” value (rabbit eyes; highest dose 800 µg/eye) was 95.35, the Flicker amp (rabbit eyes; highest dose 800 µg/eye) was 21.09 and the “Light A amp” value (rabbit eyes; highest dose 800 µg/eye) was −5.57. For the same compound, the “Light B amp” value (rabbit eyes; highest dose 800 µg/eye) was 48.06, the “time drug depot still visible” value (rabbit eyes; highest dose (800 µg/eye)) was ≥ 7 months and the well tolerated dose (rabbit eyes; intravitreal) was “up to 250 µg/eye”. For the same compound, the “Dark A amp” value (rabbit eyes; low dose 25 µg/eye) was −14.44, the “Dark B amp” value (rabbit eyes; low dose 25 µg/eye) was 88.14 and the Flicker amp (rabbit eyes; low dose 25 µg/eye) was 22.58. The “Light A amp” value (rabbit eyes; low dose 25 µg/eye) was −4.49, the “Light B amp” value (rabbit eyes; low dose 25 µg/eye) was 47.93 and the “Dark B amp” value (rabbit eyes; moderate dose 80 µg/eye) was 79.31. For the same compound, the Flicker amp (rabbit eyes; moderate dose 80 µg/eye) was 23.51, the “Light A amp” value (rabbit eyes; moderate dose 80 µg/eye) was −5.64 and the “Light B amp” value (rabbit eyes; moderate dose 80 µg/eye) was 42.83. For the same compound, the “AC cell (eyes affected/eyes)” value (rabbit eyes; week 1, 25 µg) was 0/4, the “Fundus abnormality (eyes affected/eyes)” value (rabbit eyes; week 1, 25 µg) was 0/4 and the “Vit. Clarity (eyes affected/eyes)” value (rabbit eyes; week 1, 25 µg, haze from vitreous hemorrhage during injection) was 1/4#. For the same compound, the “AC cell (eyes affected/eyes)” value (rabbit eyes; week 1, 80 µg) was 0/4, the “Fundus abnormality (eyes affected/eyes)” value (rabbit eyes; week 1, 80 µg) was 0/4 and the “Vit. Clarity (eyes affected/eyes)” value (rabbit eyes; week 1, 80 µg) was 0/4. For the same compound, the “AC cell (eyes affected/eyes)” value (rabbit eyes; week 1, 250 µg) was 0/4, the “Fundus abnormality (eyes affected/eyes)” value (rabbit eyes; week 1, 250 µg) was 0/4 and the “Vit. Clarity (eyes affected/eyes)” value (rabbit eyes; week 1, 250 µg) was 0/4. For the same compound, the “AC cell (eyes affected/eyes)” value (rabbit eyes; week 1, 800 µg) was 0/4, the “Fundus abnormality (eyes affected/eyes)” value (rabbit eyes; week 1, 800 µg) was 0/4 and the “Vit. Clarity (eyes affected/eyes)” value (rabbit eyes; week 1, 800 µg) was 0/4. The “AC cell (eyes affected/eyes)” value (rabbit eyes; week 8, 25 µg) was 0/4, the “Fundus abnormality (eyes affected/eyes)” value (rabbit eyes; week 8, 25 µg) was 0/4 and the “Vit. Clarity (eyes affected/eyes)” value (rabbit eyes; week 8, 25 µg) was 0/4. For the same compound, the “AC cell (eyes affected/eyes)” value (rabbit eyes; week 8, 80 µg) was 0/4, the “Fundus abnormality (eyes affected/eyes)” value (rabbit eyes; week 8, 80 µg) was 0/4 and the “Vit. Clarity (eyes affected/eyes)” value (rabbit eyes; week 8, 80 µg) was 0/4. The “AC cell (eyes affected/eyes)” value (rabbit eyes; week 8, 250 µg) was 0/4, the “Fundus abnormality (eyes affected/eyes)” value (rabbit eyes; week 8, 250 µg) was 0/4 and the “Vit. Clarity (eyes affected/eyes)” value (rabbit eyes; week 8, 250 µg) was 0/4. For the same compound, the “AC cell (eyes affected/eyes)” value (rabbit eyes; week 28, 800 µg) was 0/4, the “Vit. Clarity (eyes affected/eyes)” value (rabbit eyes; week 28, 800 µg) was 0/4 and the “Fundus abnormality (eyes affected/eyes)” value (rabbit eyes; week 28, 800 µg, direct contact of depot with medullary ray or inferior retina) was 2/4*. It also gave a CC50 (rMC-1 cells) of 25 µM and a CC50 (ARPE-19 cells) of 50 µM.
In the case of Nc1ccn([C@@H]2O[C@H](CO)[C@@H](O)[C@@H]2O)c(=O)n1 [cytarabine, 1-β-D-arabinofuranosylcytosine], the intravitreal half-life [3] is listed as ≤ 12 h.
In the case of CCCCCCCCCCCCCCCCOCCCOP1(=O)OCC2OC(n3cc(F)c(=O)[nH]c3=O)CC2O1 (stereo not shown) [hexadecyloxypropyl 5-fluoro-2'-deoxyuridine cyclic 3′,5′-monophosphate], the “effect on experimental PVR” value (experimental PVR) is listed as “inhibited experimental PVR”.
For CCCCCCCCCCCCCCCCOCCCOP1(=O)CO[C@@H](Cn2ccc(N)nc2=O)CO1 (stereo partly shown) [hexadecyloxypropyl cyclic cidofovir], the “duration of herpes simplex virus suppression” value (herpes simplex virus) is given as “up to 4 months”.
